Measurements from patent US5849536A, “Cloning and production of human von willebrand factor GPIb binding domain polypeptides and methods of using same” (Bio-Technology General Corp., priority 1994, dated 1998).

Test system: rat platelet rich plasma (PRP)
Assay: vWF-dependent platelet aggregation assay in rat platelet rich plasma
Type: cell-based
Conditions: ristocetin up to 5.0 mg/ml, no additional agent
Protocol: This is a standardized von Willebrand Factor (vWF)-dependent aggregation assay using human or rat platelet rich plasma (PRP). The addition of various concentrations of unfractionated Bothrops jararaca venom (BJV), which includes botrocetin and an additional thrombin-like component, or ristocetin results in an aggregatory response in the absence of any additional agent. Using ristocetin (1.5 mg/ml) as the agonist 43 μg/ml VCL abolished the aggregation of human PRP.

ristocetin
aggregation of rat PRP induced by the agonist: did not cause measurable aggregation
